The record followed here is ChEMBL document CHEMBL3507680, “University of Dundee, Gates Library screen for HepG2 cell viability”.

Each structure is given as a SMILES string.

The series in a line: Human HepG2 cell viability assay in 384 well format. Type of series: toxicity, cell-based. More on the design: dose 125 nL, time 70.5 hour; concentration not given beside the values. The following applies: HepG2 cells, read-out: Inhibition.
Turning to `CC(C)N1CCCCC1CCn1cnc2cc(C(F)(F)F)ccc2c1=O` (centres undefined), the cytotoxicity at 70.5 h is -12.9%.

For the compound `CC(NC(=O)NCCCc1n[nH]c(N)c1C#N)c1ccc(Cl)cc1` (centres undefined), the cytotoxicity at 70.5 h was -0.0754%.

As for `O=C(O)[C@H]1OCC(=O)N(Cc2cccc(Cl)c2)[C@@H]1c1ccccc1`, the cytotoxicity at 70.5 h was -6.12%.

In the case of `COCc1cnc2n1CCN(C(=O)c1cn(C)c3ccccc13)C2C` (centres undefined), the cytotoxicity at 70.5 h was -5.93%.

As to `CN1CC(=O)N(c2ccccc2)CC12CCN(CCO)C2` (centres undefined), the cytotoxicity at 70.5 h was found to be 6.4%.

As for `CCCc1nc(CN2CCOC(CNc3cccnn3)C2)cs1` (centres undefined), the cytotoxicity at 70.5 h is -11.7%.

Regarding `COCCN1CCC(CNC(=O)Nc2ccc(-c3ccccc3)cc2)C1` (centres undefined), the cytotoxicity at 70.5 h is 1.85%.

For `Cc1ncc(CN2CCCC2)c2cc(C(=O)c3ccc(Br)cc3)oc12`, the cytotoxicity at 70.5 h is -14.3%.

As to `COc1ccc(C(=O)NC2CC2)c(OC)c1`, the cytotoxicity at 70.5 h is -11.5%.

In the case of `CC(c1ncc(C(C)(C)C)o1)N1CCN(Cc2ccc(Cl)s2)CC1` (centres undefined), the cytotoxicity at 70.5 h came out at 16.2%.

For `C[C@@H]1CN(CCC(=O)NCc2ccccc2Cl)C[C@@]1(O)C1CC1`, the cytotoxicity at 70.5 h is -2.59%.

With `CNC(=O)[C@@H](CC(C)C)N1CCC[C@H]1C(=O)N(C)Cc1ccccc1`, the cytotoxicity at 70.5 h is -7.93%.

On to `CCC(C)C(=O)NCCCn1nc(C)cc1C` (centres undefined), for which the cytotoxicity at 70.5 h is -13.2%.

For the compound `CC1COCCN1C(=O)c1cnccn1` (centres undefined), the cytotoxicity at 70.5 h amounted to 7.55%.

For `O[C@@H]1CN(Cc2cc(Cl)cc3cccnc23)C[C@@H]1O`, the cytotoxicity at 70.5 h is -4.72%.

`Cn1ccc2c(C(=O)N3CCC(C(N)=O)CC3)cccc21`: the cytotoxicity at 70.5 h is -2.97%.

With `Cc1oc(C(=O)Nc2ccccc2F)cc1S(N)(=O)=O`, the cytotoxicity at 70.5 h was -10.9%.

Turning to `Cn1cnc(S(=O)(=O)N2C[C@@H]3CC[C@H](C2)N(Cc2cscn2)C3=O)c1`, the cytotoxicity at 70.5 h was -6.52%.

On to `Cn1ccnc1C(=O)NC[C@@H]1OC[C@H]2CN(S(C)(=O)=O)CC[C@H]21`, for which the cytotoxicity at 70.5 h was -5.19%.

Take `COC1CCCN(C(=O)Nc2nc(C)n(C)n2)C1` (centres undefined): the cytotoxicity at 70.5 h was -8.2%.

As to `CC(C)N(CCO)C(=O)C1CCC(=O)N(CCc2ccc(Cl)cc2)C1` (centres undefined), the cytotoxicity at 70.5 h is -1.21%.

Regarding `O=C(CN1CCCC(c2ccn[nH]2)C1)N1CCCc2ccccc21` (centres undefined), the cytotoxicity at 70.5 h is 15.3%.

In the case of `CC(C)OCC(=O)Nc1ccc(Oc2ccc3c(c2)OCO3)nc1`, the cytotoxicity at 70.5 h is -5.21%.

Take `COc1cc(C(=O)NS(=O)(=O)c2ccc(C#N)cc2)ccc1C`: the cytotoxicity at 70.5 h is -5.03%.

In the case of `Cc1nc(CN2C[C@@H]3CN(c4ncc(F)cn4)C[C@@H]3C2=O)cs1`, the cytotoxicity at 70.5 h was -10.5%.

Regarding `Cc1cc(C)n(CC(C)NCCn2nc(C)c(Cl)c2C)n1` (centres undefined), the cytotoxicity at 70.5 h came to 3.47%.

On to `CCc1cc(N[C@H]2CCC[C@H]2O)n2nccc2n1`, for which the cytotoxicity at 70.5 h was determined as 7.67%.

Turning to `CC(C)N(C)Cc1cncc2c1CCN(Cc1cccs1)C2`, the cytotoxicity at 70.5 h is -3.46%.

As for `CN(CCC#N)C(=O)CN(C1CC1)C1CCc2ccccc21` (centres undefined), the cytotoxicity at 70.5 h was found to be 0.586%.

For the compound `CNc1nc(C2CCCN2C(C)=O)nc2c1CN(CCO)CC2` (centres undefined), the cytotoxicity at 70.5 h was -3.16%.

Take `Cc1nc(N2CCC3(CCCNC3=O)C2)nc2c1CCCC2` (centres undefined): the cytotoxicity at 70.5 h is -3.11%.

As to `O=C1CCCC2(CCN(C(=O)c3ccccn3)CC2)N1`, the cytotoxicity at 70.5 h is -1.46%.

With `CCc1ccc2nc(NCCOCCO)cc(C)c2c1`, the cytotoxicity at 70.5 h was -2.24%.

As for `CC(=O)c1ccc(N2CCN(C(=O)c3cnn4c3OCCC4)CC2)cc1`, the cytotoxicity at 70.5 h amounted to 1.33%.

`Cc1ccc(OC2(C(=O)NC(C)c3csc(C)n3)CCNCC2)cc1` (centres undefined): the cytotoxicity at 70.5 h came out at 22.5%.

In the case of `O=C(N[C@@H]1CC[C@@H](N2CCCC2)[C@@H]1O)c1cc2ccccc2[nH]1`, the cytotoxicity at 70.5 h is -5.76%.

For `Cc1ccc(CNC(=O)NCC(=O)NC(C)(C)C)c(N2CCCC2)c1`, the cytotoxicity at 70.5 h is -16.8%.

With `CCC(CC)(CC(=O)OC)NC(=O)Nc1nnc(-c2ccccn2)s1`, the cytotoxicity at 70.5 h is 9.93%.

As to `CC(C)(C)n1cc(C#N)cc1NC(=O)CCS(=O)(=O)C1CCCC1`, the cytotoxicity at 70.5 h worked out at 0.563%.

With `CN(C)CC1(O)CCCN(C(=O)Cn2ccc3ccccc32)CC1` (centres undefined), the cytotoxicity at 70.5 h was determined as 29.7%.

In the case of `O=c1[nH]c(N2CCCCC2)nc2nccc(-c3ccc4c(c3)OCO4)c12`, the cytotoxicity at 70.5 h was -12.9%.

With `Cn1ccc(C(=O)N2CCN(c3nccs3)CC2)cc1=O`, the cytotoxicity at 70.5 h was found to be 2.52%.

Turning to `Cc1ccc(N2CCC(Nc3ccc4nnc(C)n4n3)CC2)nc1`, the cytotoxicity at 70.5 h is -1.55%.

`CC(C(=O)NCC1CCN(c2ccncc2)CC1)S(C)(=O)=O` (centres undefined): the cytotoxicity at 70.5 h is -7.42%.

In the case of `Cc1ccoc1C(=O)N(CCN(C)C)Cc1ccccn1`, the cytotoxicity at 70.5 h was -2.01%.

As to `CCC[C@@H]1CN(Cc2ccccc2-c2ccco2)C[C@H]1NC(C)=O`, the cytotoxicity at 70.5 h is -5.42%.

In the case of `Cc1cnc(C(NC(=O)NCC2(CO)CC2)C2CC2)s1` (centres undefined), the cytotoxicity at 70.5 h amounted to 2.13%.

Consider `CS(=O)(=O)N[C@@H]1CN(Cc2ccco2)C[C@@H]2CCCO[C@@H]21`, for which the cytotoxicity at 70.5 h is -6.79%.

Take `O=C(NC1CC1)C1CCc2nnc(C3CC3)n21` (centres undefined): the cytotoxicity at 70.5 h is -10.1%.

Regarding `Cc1nc2c(c(NC(C)C)n1)CCN(C(=O)c1ccno1)CC2`, the cytotoxicity at 70.5 h was -6.32%.

Turning to `O=C1N(C2CCOCC2)CCCC12CCN(c1ncccc1Cl)C2` (centres undefined), the cytotoxicity at 70.5 h is -14.5%.

Consider `COc1ccc(C(=O)C2CCCN(c3cc(N)ncn3)C2)c(C)c1` (centres undefined), for which the cytotoxicity at 70.5 h was -10.4%.

As for `CCN1C[C@H]2[C@@H](C1)N(S(=O)(=O)c1cccnc1)CC[C@H]2OC`, the cytotoxicity at 70.5 h came to 45.6%.

As for `Cc1ccc2c(c1)SCC(=O)N2CC(=O)N1CCCC1c1cc(C)no1` (centres undefined), the cytotoxicity at 70.5 h was found to be 12.8%.

As to `Cc1nn(C)c(C)c1CNC(=O)c1cc(NC(=O)C2CC2)n(C)n1`, the cytotoxicity at 70.5 h is -7.51%.

As to `O=C(CSCC1CC1)N1CCCC2(CCC(=O)N(CC3CC3)C2)C1` (centres undefined), the cytotoxicity at 70.5 h is -25.9%.

Regarding `CC1CCCN(Cc2ccc(CNC(=O)NCc3ccon3)cc2)C1` (centres undefined), the cytotoxicity at 70.5 h was found to be 2.37%.

As to `CCN(C(=O)c1nc2c(s1)CCCN2C)C(C)C`, the cytotoxicity at 70.5 h is -1.08%.

As for `CC(C)CN1CCC(c2nc3ccc(NC(C)C)cn3n2)CC1`, the cytotoxicity at 70.5 h was -13.1%.

Regarding `CC1c2ncc(CNC(=O)C3CC3)n2CCN1Cc1ccncc1` (centres undefined), the cytotoxicity at 70.5 h is -16.1%.

On to `COc1ccc(S(=O)(=O)N2CCOC(Cn3ccnc3)C2)cc1` (centres undefined), for which the cytotoxicity at 70.5 h is -8.46%.

In the case of `CC(=O)N1[C@H](Cn2cncn2)C[C@@H]2CN(CC3CC3)CC[C@@H]21`, the cytotoxicity at 70.5 h is -1.99%.

Consider `COc1cc(-c2nccn2C(C)CCn2cccn2)cc2c1OCO2` (centres undefined), for which the cytotoxicity at 70.5 h is 1.97%.

`c1ccc(CN2CCCC3(CCN(CC4CCCO4)CC3)C2)nc1` (centres undefined): the cytotoxicity at 70.5 h is -9.93%.

Regarding `Cc1cc(C)cc(-c2cc(C3CCOC3)c(C#N)c(N)n2)c1` (centres undefined), the cytotoxicity at 70.5 h is 12.8%.

Consider `CNC(=O)C1CCC(NC(=O)c2cc(C3CC3)n(C(C)(C)C)n2)CC1` (centres undefined), for which the cytotoxicity at 70.5 h was -6.36%.

Take `Cc1cc2c(cc1CNC(Cc1cccs1)c1nccs1)OCO2` (centres undefined): the cytotoxicity at 70.5 h came to 1.05%.

Consider `O=C1CCC2(CCCN(c3ncc(F)cn3)CC2)N1CC1CC1` (centres undefined), for which the cytotoxicity at 70.5 h was -1.42%.

In the case of `Cc1nc2n(n1)CC(NCC(=O)Nc1cc(C)on1)CC2` (centres undefined), the cytotoxicity at 70.5 h was -6.78%.

On to `COc1ccc(C2(C(=O)NC3CCc4nccn4C3)CCCC2)cc1` (centres undefined), for which the cytotoxicity at 70.5 h is -3%.

With `O=C(c1cccnc1)N1CCn2nnc(COc3cccnc3)c2C1`, the cytotoxicity at 70.5 h was -3.89%.

As to `COCCNC(=O)NCc1ccc(OC(C)C)c(F)c1`, the cytotoxicity at 70.5 h is -10.4%.

Consider `CCc1oc(C(=O)NCCNS(C)(=O)=O)cc1CN1CCCC1`, for which the cytotoxicity at 70.5 h was 11.7%.

For `Cc1cc(CNC(=O)N2CCN(Cc3ccccc3)C[C@H]2C)on1`, the cytotoxicity at 70.5 h turned out to be 30.7%.

For the compound `CCOCc1ccc(CNc2cncc(-n3cccn3)n2)cc1`, the cytotoxicity at 70.5 h stood at 8.54%.

With `CCn1ccnc1C1CCN(Cc2cccc(C)n2)CC1`, the cytotoxicity at 70.5 h was determined as 2.62%.

As to `COCCN(CCOC)C(=O)c1ccn(-c2ccccc2Cl)n1`, the cytotoxicity at 70.5 h came out at 17.5%.

Regarding `COc1ccc2c(c1)c(C(=O)Nc1n[nH]c(C(C)C)n1)cn2C(C)C`, the cytotoxicity at 70.5 h was determined as 40.7%.

As for `Cc1noc(C)c1CN1CCC(c2ccnn2CCO)CC1`, the cytotoxicity at 70.5 h was -5.98%.

Take `Cn1cccc(NC(=O)NCCc2cccc(O)c2)c1=O`: the cytotoxicity at 70.5 h is 9.38%.

`Cc1cnn(CC2CN(Cc3nc4ccccc4n3C)CCO2)c1` (centres undefined): the cytotoxicity at 70.5 h was 9.31%.

Take `Cc1cc(NC(=O)CCn2cncn2)no1`: the cytotoxicity at 70.5 h amounted to 5.52%.

Consider `COc1ccccc1OC1(C(=O)O)CCN(c2ncnc(C)c2C)CC1`, for which the cytotoxicity at 70.5 h turned out to be 17.6%.

For `CC(=O)Nc1nc(C(=O)N2CCCC2c2ccc(Br)cc2)cs1` (centres undefined), the cytotoxicity at 70.5 h was 3.74%.

`COc1cccc(-c2nc(C)c(C(=O)N[C@H](CO)CC(C)C)s2)c1`: the cytotoxicity at 70.5 h was -22.7%.

Regarding `CC(C)c1noc(C(C)N2CCN(CCO)CC2)n1` (centres undefined), the cytotoxicity at 70.5 h is -1.66%.

Turning to `Cc1ccc2c(c1)C1(CC2)CCN(c2nncs2)CC1`, the cytotoxicity at 70.5 h was -4.57%.

As to `Cc1nn(C)c(C)c1C1CCCN1CCCC#N` (centres undefined), the cytotoxicity at 70.5 h was -4.71%.

Turning to `OCCNc1nc(Nc2ccccc2)c2nccnc2n1`, the cytotoxicity at 70.5 h is -0.149%.

With `CCN(CC)C1CCN(C(=O)Nc2cc(F)c(OC)c(F)c2)C1` (centres undefined), the cytotoxicity at 70.5 h stood at 1.91%.

Regarding `CCOc1ccccc1CNCC1CCN(CC(C)O)CC1` (centres undefined), the cytotoxicity at 70.5 h is -1.15%.

As to `O=C(CC(F)(F)F)NC(c1ccc(Cl)cc1)c1ncon1` (centres undefined), the cytotoxicity at 70.5 h is -3.08%.

`O=C(N[C@H]1CN(c2ccncc2)C[C@@H]1C1CC1)C1CCOCC1`: the cytotoxicity at 70.5 h is -3.12%.

As for `Cc1nn(C)c2nc(N3CCC(C(O)c4nccn4C)CC3)sc12` (centres undefined), the cytotoxicity at 70.5 h was -11.6%.

With `CC(NCCc1nccn1Cc1ccccc1)c1cccs1` (centres undefined), the cytotoxicity at 70.5 h was found to be 13.3%.

In the case of `COc1ncccc1C(=O)N1CCC2(CC1)CC(OC)CO2` (centres undefined), the cytotoxicity at 70.5 h was -6.77%.

With `N#Cc1ccc(N2CCCC3(CCN(c4cccnc4)CC3)C2)cc1`, the cytotoxicity at 70.5 h is 51.2%.

In the case of `O=C(NCCc1nncn1C1CC1)C1(c2ccccc2)CCC1`, the cytotoxicity at 70.5 h was -5.9%.

Regarding `Cc1cc(C)nc(N2CCCC2c2cccnc2)n1` (centres undefined), the cytotoxicity at 70.5 h was -2.91%.
